In PubChem BioAssay (NCI):
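Assay format: 96-well plates, 48-hour exposure. At the GI50, growth is halved. TGI denotes the concentration required for complete inhibition of growth.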

Experiments:
Test in all cases: DTP human tumour cell line panel, 48 h
[1] = system: IGROV1 ovarian
[2] = system: UACC-62 melanoma
[3] = system: MDA-MB-468 breast
[4] = system: OVCAR-8 ovarian
[5] = system: SW-620 colon
[6] = system: SF-539 CNS
[7] = system: HOP-62 NSCLC
[8] = system: SF-268 CNS
[9] = system: SK-OV-3 ovarian
[10] = system: A498 renal
[11] = system: HCT-15 colon
[12] = system: MDA-MB-435
[13] = system: CCRF-CEM leukemia
[14] = system: NCI-H23 lung
[15] = system: RXF 393 renal
[16] = system: OVCAR-3 ovarian
[17] = system: EKVX NSCLC
[18] = system: BT-549 breast
[19] = system: SF-295 CNS
[20] = system: SK-MEL-2 melanoma
[21] = system: OVCAR-4 ovarian
[22] = system: SN12C renal
[23] = system: KM12 colon
[24] = system: CAKI-1 renal
[25] = system: TK-10 renal
[26] = system: SK-MEL-28 melanoma
[27] = system: HOP-92 NSCLC
[28] = system: K-562 leukemia
[29] = system: SNB-75 CNS
[30] = system: HT29 colon
[31] = system: MOLT-4 leukemia
[32] = system: HCC-2998 colon
[33] = system: MDA-MB-231 breast
[34] = system: SR leukemia
[35] = system: LOX IMVI melanoma
[36] = system: 786-0 renal
[37] = system: RPMI-8226 leukemia
[38] = system: MCF7 breast
[39] = system: PC-3 prostate
[40] = system: DU-145 prostate
[41] = system: M14 melanoma
[42] = system: NCI-H522 lung
[43] = system: ACHN renal
[44] = system: NCI-H460 lung
[45] = system: MALME-3M melanoma
[46] = system: SK-MEL-5 melanoma
[47] = system: UACC-257 melanoma
[48] = system: NCI-H226 lung
[49] = system: SNB-19 CNS
[50] = system: U251 CNS
[51] = system: A549 NSCLC
[52] = system: COLO 205 colon
[53] = system: T-47D breast
[54] = system: HS 578T breast
[55] = system: HL-60(TB) leukemia
[56] = system: OVCAR-5 ovarian

## CN1C(=O)/C(=C/c2ccc3ncsc3c2)NC1=NC12CC3CC(CC(O)(C3)C1)C2
[1]
  GI50: 2.82 µM
  TGI: > 100 µM
[2]
  GI50: 2.22 µM
  TGI: 9.09 µM
[3]
  GI50: 1.48 µM
  TGI: 15.9 µM
[4]
  GI50: 3.01 µM
  TGI: > 100 µM
[5]
  GI50: 2.74 µM
  TGI: 17.3 µM
[6]
  GI50: 1.29 µM
  TGI: 5.82 µM
[7]
  GI50: 4.13 µM
  TGI: > 100 µM
[8]
  GI50: 4.47 µM
  TGI: 34.5 µM
[9]
  GI50: 2.21 µM
  TGI: > 100 µM
[10]
  GI50: 1.6 µM
  TGI: 6.68 µM
[11]
  GI50: 2.13 µM
  TGI: > 100 µM
[12]
  GI50: 3.69 µM
  TGI: 20 µM
[13]
  GI50: 1.92 µM
  TGI: 8.18 µM
[14]
  GI50: 2.48 µM
  TGI: 13.9 µM
[15]
  GI50: 1.85 µM
  TGI: 12.2 µM
[16]
  GI50: 1.4 µM
  TGI: 6.18 µM
[17]
  GI50: 4.25 µM
  TGI: > 100 µM
[18]
  GI50: 1.17 µM
  TGI: 10.3 µM
[19]
  GI50: 5.28 µM
  TGI: > 100 µM
[20]
  GI50: 1.98 µM
  TGI: 9.48 µM
[21]
  GI50: 9.29 µM
  TGI: > 100 µM
[22]
  GI50: 2.07 µM
  TGI: 49.6 µM
[23]
  GI50: 2.81 µM
  TGI: > 100 µM
[24]
  GI50: 1.64 µM
  TGI: > 100 µM
[25]
  GI50: 4.44 µM
  TGI: > 100 µM
[26]
  GI50: 2.57 µM
  TGI: 8.69 µM
[27]
  GI50: 5.31 µM
  TGI: 56.9 µM
[28]
  GI50: 1.7 µM
  TGI: > 100 µM
[29]
  GI50: 1.02 µM
  TGI: 7.89 µM
[30]
  GI50: 3.85 µM
  TGI: 17.8 µM
[31]
  GI50: 2.22 µM
  TGI: 22.3 µM
[32]
  GI50: 7.66 µM
  TGI: > 100 µM
[33]
  GI50: 4.26 µM
  TGI: 85.4 µM
[34]
  GI50: 0.534 µM
  TGI: 5.37 µM
[35]
  GI50: 2.52 µM
  TGI: > 100 µM
[36]
  GI50: 4.02 µM
  TGI: > 100 µM
[37]
  GI50: 1.98 µM
  TGI: 6.83 µM
[38]
  GI50: 2.98 µM
  TGI: > 100 µM
[39]
  GI50: 3.73 µM
  TGI: > 100 µM
[40]
  GI50: 2.97 µM
  TGI: > 100 µM
[41]
  GI50: 4.28 µM
  TGI: 34.4 µM
[42]
  GI50: 0.768 µM
  TGI: 4.49 µM
[43]
  GI50: 0.892 µM
  TGI: > 100 µM
[44]
  GI50: 2.22 µM
  TGI: > 100 µM
[45]
  GI50: 2.98 µM
  TGI: 8.25 µM
[46]
  GI50: 2.02 µM
  TGI: 5.07 µM
[47]
  GI50: 3.59 µM
  TGI: 12.5 µM
[48]
  GI50: 2.7 µM
  TGI: > 100 µM
[49]
  GI50: 3.47 µM
  TGI: > 100 µM
[50]
  GI50: 3.14 µM
  TGI: > 100 µM
[51]
  GI50: 1.98 µM
  TGI: > 100 µM
[52]
  GI50: 3.18 µM
  TGI: 30.5 µM
[53]
  GI50: 3.32 µM
  TGI: > 100 µM
[54]
  GI50: 2.16 µM
  TGI: 8.97 µM
[55]
  GI50: 3.2 µM
  TGI: 8.15 µM
[56]
  GI50: 5.12 µM
  TGI: > 100 µM
